Reference: PMC7531004, “Discovery of gramicidin A analogues with altered activities by multidimensional screening of a one-bead-one-compound library” (Nature Communications, 2020)
Where a SMILES comes first, the peptide text is derived from it. [ ]: non-standard residue; d: D form. The star is where a group is joined. NHCH2CH2OH = OCCN*; For = O=C*

Key:
[1] = test system: Streptococcus pyogenes SSI-9; test: Antibacterial activity assay of bead-derived peptides (three concentrations); format: cell-based; parameters: key: +++: inhibition by the 640-fold diluted peptide solution; ++: inhibition by the 160-fold diluted solution; +: inhibition by the 40-fold diluted solution; -: no inhibition; settings: S. pyogenes, bead-derived peptide solution, three concentrations
Method in brief: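 Three stock dilutions per peptide (none, 4-fold, 16-fold in DMSO) are screened in 96-well format. The medium is blood-supplemented cation-adjusted MHB, inoculated with 2 × 10^5 CFU S. pyogenes SSI-9. Growth is read as cell precipitation at 18 h, 37 °C.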

[2] = test system: P388 mouse leukemia cells; settings: 92 h
Method in brief: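 First, library peptide stocks are diluted 250-fold in RPMI1640 with 10% heat-inactivated FBS. Next, they are mixed with P388 cells to give 1 × 10^4 cells/mL and incubated 92 h at 37 °C, 5% CO2. Finally, viability (%) is scored by WST-1 absorbance at 415 nm.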

[3] = H+/Na+ transport assay of bead-derived peptides (one-point); format: biochemical; parameters: key: relative activity; mean of two control wells = 1.00; settings: bead-derived peptide solution, EYPC/EYPG LUVs;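 also: relative to parent gramicidin A activity set to 1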
Method in brief: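 One-point screen: peptide + pyranine-loaded LUVs, 30 min RT with vortexing, 96-well. Read-out is fluorescence intensity scaled as 100 × (Ix – I0)/(Imax – I0). Imax from Triton X-100, I0 from untreated vesicles, and the mean of the two control wells is set to 1.00.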

| Structure (SMILES) | antibacterial activity [1] | cell viability/% [2] | H+/Na+ transport activity normalized against the value of 1 (1.00) [3] |
| --- | --- | --- | --- |
| CC(C)C[C@@H](NC(=O)[C@H](Cc1c[nH]c2ccccc12)NC(=O)[C@H](NC(=O)[C@@H](NC(=O)[C@H](NC(=O)[C@H](C)NC(=O)[C@H](NC(=O)[C@H](C)NC(=O)CNC(=O)[C@@H](NC=O)C(C)C)[C@H](C)O)C(C)C)C(C)C)C(C)C)C(=O)N[C@@H](Cc1c[nH]c2ccccc12)C(=O)N[C@H](CC(C)C)C(=O)N[C@@H](Cc1c[nH]c2ccccc12)C(=O)N[C@@H](C(=O)N[C@@H](Cc1c[nH]c2ccccc12)C(=O)NCCO)C(C)C [compound 6843] (For-VGA[dT]A[dV]V[dV]W[dL]W[dL]W[dV]W-NHCH2CH2OH) | - | 100.0% | 1.15 |
| CC(C)C[C@@H](NC(=O)[C@H](C)NC(=O)CNC(=O)[C@@H](NC=O)C(C)C)C(=O)N[C@@H](C)C(=O)N[C@H](CC(C)C)C(=O)N[C@H](C(=O)N[C@H](CC(C)C)C(=O)N[C@@H](Cc1c[nH]c2ccccc12)C(=O)N[C@@H](C(=O)N[C@@H](Cc1c[nH]c2ccccc12)C(=O)N[C@@H](C(=O)N[C@@H](Cc1c[nH]c2ccccc12)C(=O)N[C@@H](C(=O)N[C@@H](Cc1c[nH]c2ccccc12)C(=O)NCCO)C(C)C)C(C)C)C(C)C)C(C)C [compound 7408] (For-VGA[dL]A[dL]V[dL]W[dV]W[dV]W[dV]W-NHCH2CH2OH) | - | 19.4% | 1.06 |
| CC(C)C[C@@H](NC(=O)[C@H](C)NC(=O)CNC(=O)[C@@H](NC=O)C(C)C)C(=O)N[C@@H](C)C(=O)N[C@@H](C(=O)N[C@H](C(=O)N[C@H](CC(C)C)C(=O)N[C@@H](Cc1c[nH]c2ccccc12)C(=O)N[C@H](CC(C)C)C(=O)N[C@@H](Cc1c[nH]c2ccccc12)C(=O)N[C@@H](C(=O)N[C@@H](Cc1c[nH]c2ccccc12)C(=O)N[C@H](CC(C)C)C(=O)N[C@@H](Cc1c[nH]c2ccccc12)C(=O)NCCO)[C@H](C)O)C(C)C)C(C)C [compound 4128] (For-VGA[dL]A[dV]V[dL]W[dL]W[dT]W[dL]W-NHCH2CH2OH) | + | 100.0% | 1.03 |
| CC(C)C[C@@H](NC(=O)[C@H](C)NC(=O)CNC(=O)[C@@H](NC=O)C(C)C)C(=O)N[C@@H](C)C(=O)N[C@@H](C(=O)N[C@H](C(=O)N[C@@H](C(=O)N[C@@H](Cc1c[nH]c2ccccc12)C(=O)N[C@@H](C(=O)N[C@@H](Cc1c[nH]c2ccccc12)C(=O)N[C@H](CC(C)C)C(=O)N[C@@H](Cc1c[nH]c2ccccc12)C(=O)N[C@H](CC(C)C)C(=O)N[C@@H](Cc1c[nH]c2ccccc12)C(=O)NCCO)C(C)C)C(C)C)C(C)C)C(C)C [compound 3124] (For-VGA[dL]A[dV]V[dV]W[dV]W[dL]W[dL]W-NHCH2CH2OH) | ++ | 0.0% | 1.26 |
| CC(C)C[C@@H](NC(=O)[C@H](C)NC(=O)[C@H](NC(=O)[C@H](C)NC(=O)CNC(=O)[C@@H](NC=O)C(C)C)[C@H](C)O)C(=O)N[C@H](C(=O)N[C@H](CC(C)C)C(=O)N[C@@H](Cc1c[nH]c2ccccc12)C(=O)N[C@@H](C(=O)N[C@@H](Cc1c[nH]c2ccccc12)C(=O)N[C@H](CC(C)C)C(=O)N[C@@H](Cc1c[nH]c2ccccc12)C(=O)N[C@H](CC(C)C)C(=O)N[C@@H](Cc1c[nH]c2ccccc12)C(=O)NCCO)C(C)C)C(C)C [compound 7890] (For-VGA[dT]A[dL]V[dL]W[dV]W[dL]W[dL]W-NHCH2CH2OH) | - | 100.0% | 1.11 |
| CNC(=O)C[C@@H](NC(=O)[C@@H](NC(=O)[C@@H](CC(C)C)NC(=O)[C@H](C)NC(=O)[C@H](NC(=O)[C@H](C)NC(=O)CNC(=O)[C@@H](NC=O)C(C)C)C(C)C)C(C)C)C(=O)N[C@@H](Cc1c[nH]c2ccccc12)C(=O)N[C@H](CC(C)C)C(=O)N[C@@H](Cc1c[nH]c2ccccc12)C(=O)N[C@H](CC(C)C)C(=O)N[C@@H](Cc1c[nH]c2ccccc12)C(=O)N[C@@H](C(=O)N[C@@H](Cc1c[nH]c2ccccc12)C(=O)NCCO)C(C)C [compound 6360] (For-VGA[dV]A[dL]V[dD](NHMe)W[dL]W[dL]W[dV]W-NHCH2CH2OH) | - | 67.2% | 1.03 |
| CC(C)C[C@@H](NC(=O)[C@H](Cc1c[nH]c2ccccc12)NC(=O)[C@H](NC(=O)[C@H](Cc1c[nH]c2ccccc12)NC(=O)[C@H](NC(=O)[C@@H](NC(=O)[C@H](NC(=O)[C@H](C)NC(=O)[C@H](NC(=O)[C@H](C)NC(=O)CNC(=O)[C@@H](NC=O)C(C)C)C(C)C)C(C)C)C(C)C)C(C)C)C(C)C)C(=O)N[C@@H](Cc1c[nH]c2ccccc12)C(=O)N[C@@H](C(=O)N[C@@H](Cc1c[nH]c2ccccc12)C(=O)NCCO)C(C)C [compound 676] (For-VGA[dV]A[dV]V[dV]W[dV]W[dL]W[dV]W-NHCH2CH2OH) | ++ | 100.0% | 1.02 |
| CC(C)C[C@@H](NC(=O)[C@H](Cc1c[nH]c2ccccc12)NC(=O)[C@H](NC(=O)[C@H](Cc1c[nH]c2ccccc12)NC(=O)[C@H](NC(=O)[C@H](Cc1c[nH]c2ccccc12)NC(=O)[C@H](NC(=O)[C@@H](NC(=O)[C@H](NC(=O)[C@H](C)NC(=O)[C@H](NC(=O)[C@H](C)NC(=O)CNC(=O)[C@@H](NC=O)C(C)C)C(C)C)C(C)C)C(C)C)C(C)C)C(C)C)C(C)C)C(=O)N[C@@H](Cc1c[nH]c2ccccc12)C(=O)NCCO [compound 12606] (For-VGA[dV]A[dV]V[dV]W[dV]W[dV]W[dL]W-NHCH2CH2OH) | - | 100.0% | 1.05 |
| CC(C)C[C@@H](NC(=O)[C@H](C)NC(=O)CNC(=O)[C@@H](NC=O)C(C)C)C(=O)N[C@@H](C)C(=O)N[C@H](CC(C)C)C(=O)N[C@H](C(=O)N[C@H](CC(C)C)C(=O)N[C@@H](Cc1c[nH]c2ccccc12)C(=O)N[C@@H](C(=O)N[C@@H](Cc1c[nH]c2ccccc12)C(=O)N[C@@H](C(=O)N[C@@H](Cc1c[nH]c2ccccc12)C(=O)N[C@@H](C(=O)N[C@@H](Cc1c[nH]c2ccccc12)C(=O)NCCO)C(C)C)C(C)C)C(C)C)C(C)C [compound 5611] (For-VGA[dL]A[dL]V[dL]W[dV]W[dV]W[dV]W-NHCH2CH2OH) | + | 3.9% | 1.17 |
| CC(C)C[C@@H](NC(=O)[C@H](C)NC(=O)CNC(=O)[C@@H](NC=O)C(C)C)C(=O)N[C@@H](C)C(=O)N[C@H](CC(C)C)C(=O)N[C@H](C(=O)N[C@H](CC(C)C)C(=O)N[C@@H](Cc1c[nH]c2ccccc12)C(=O)N[C@@H](C(=O)N[C@@H](Cc1c[nH]c2ccccc12)C(=O)N[C@H](CC(C)C)C(=O)N[C@@H](Cc1c[nH]c2ccccc12)C(=O)N[C@@H](C(=O)N[C@@H](Cc1c[nH]c2ccccc12)C(=O)NCCO)C(C)C)[C@H](C)O)C(C)C [compound 10499] (For-VGA[dL]A[dL]V[dL]W[dT]W[dL]W[dV]W-NHCH2CH2OH) | - | 100.0% | 1.14 |
| CC(C)C[C@@H](NC(=O)[C@H](C)NC(=O)[C@H](NC(=O)[C@H](C)NC(=O)CNC(=O)[C@@H](NC=O)C(C)C)[C@H](C)O)C(=O)N[C@H](C(=O)N[C@H](CC(C)C)C(=O)N[C@@H](Cc1c[nH]c2ccccc12)C(=O)N[C@H](CC(C)C)C(=O)N[C@@H](Cc1c[nH]c2ccccc12)C(=O)N[C@@H](C(=O)N[C@@H](Cc1c[nH]c2ccccc12)C(=O)N[C@@H](C(=O)N[C@@H](Cc1c[nH]c2ccccc12)C(=O)NCCO)C(C)C)C(C)C)C(C)C [compound 9125] (For-VGA[dT]A[dL]V[dL]W[dL]W[dV]W[dV]W-NHCH2CH2OH) | - | 44.2% | 1.04 |
| CC(C)C[C@@H](NC(=O)[C@@H](NC(=O)[C@H](NC(=O)[C@H](C)NC(=O)[C@H](NC(=O)[C@H](C)NC(=O)CNC(=O)[C@@H](NC=O)C(C)C)C(C)C)C(C)C)C(C)C)C(=O)N[C@@H](Cc1c[nH]c2ccccc12)C(=O)N[C@@H](C(=O)N[C@@H](Cc1c[nH]c2ccccc12)C(=O)N[C@@H](C(=O)N[C@@H](Cc1c[nH]c2ccccc12)C(=O)N[C@@H](C(=O)N[C@@H](Cc1c[nH]c2ccccc12)C(=O)NCCO)C(C)C)C(C)C)C(C)C [compound 1873] (For-VGA[dV]A[dV]V[dL]W[dV]W[dV]W[dV]W-NHCH2CH2OH) | - | 100.0% | 1.09 |
| CC(C)C[C@@H](NC(=O)[C@H](C)NC(=O)CNC(=O)[C@@H](NC=O)C(C)C)C(=O)N[C@@H](C)C(=O)N[C@H](CC(C)C)C(=O)N[C@H](C(=O)N[C@@H](C(=O)N[C@@H](Cc1c[nH]c2ccccc12)C(=O)N[C@@H](C(=O)N[C@@H](Cc1c[nH]c2ccccc12)C(=O)N[C@@H](C(=O)N[C@@H](Cc1c[nH]c2ccccc12)C(=O)N[C@@H](C(=O)N[C@@H](Cc1c[nH]c2ccccc12)C(=O)NCCO)C(C)C)C(C)C)C(C)C)C(C)C)C(C)C [compound 13128] (For-VGA[dL]A[dL]V[dV]W[dV]W[dV]W[dV]W-NHCH2CH2OH) | + | 100.0% | 1.24 |
